These results are taken from ChEMBL document CHEMBL4118202, “Chiral analogues of (+)-cyclazosin as potent α1B-adrenoceptor selective antagonist” (Bioorg Med Chem, 2018).

In general, Ki refers to a measure of affinity in units of concentration, obtained from inhibition or displacement. Low readings indicate a stronger hold on the target, high ones a looser hold on the target.

Test [1] deals with T1, Alpha-1A adrenergic receptor (Homo sapiens, UniProt P35348).
T1 sequence (P35348 whole entry): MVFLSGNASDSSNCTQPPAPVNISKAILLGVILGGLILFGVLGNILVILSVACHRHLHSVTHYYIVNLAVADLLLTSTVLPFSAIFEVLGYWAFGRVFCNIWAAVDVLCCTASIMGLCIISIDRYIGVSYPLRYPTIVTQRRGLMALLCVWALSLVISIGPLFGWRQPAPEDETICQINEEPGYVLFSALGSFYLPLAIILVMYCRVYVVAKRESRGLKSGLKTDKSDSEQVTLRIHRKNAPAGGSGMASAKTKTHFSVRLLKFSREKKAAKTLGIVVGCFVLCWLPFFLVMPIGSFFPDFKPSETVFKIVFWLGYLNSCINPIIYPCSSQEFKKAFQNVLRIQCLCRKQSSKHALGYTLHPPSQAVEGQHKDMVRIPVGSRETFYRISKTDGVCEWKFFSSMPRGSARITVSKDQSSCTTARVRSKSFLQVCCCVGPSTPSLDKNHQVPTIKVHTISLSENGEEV
Nature of the test: Binding affinity to alpha1A adrenergic receptor (unknown origin).

Test [2] deals with T2, Alpha-1B adrenergic receptor (Homo sapiens, UniProt P35368).
T2 sequence (P35368 whole entry): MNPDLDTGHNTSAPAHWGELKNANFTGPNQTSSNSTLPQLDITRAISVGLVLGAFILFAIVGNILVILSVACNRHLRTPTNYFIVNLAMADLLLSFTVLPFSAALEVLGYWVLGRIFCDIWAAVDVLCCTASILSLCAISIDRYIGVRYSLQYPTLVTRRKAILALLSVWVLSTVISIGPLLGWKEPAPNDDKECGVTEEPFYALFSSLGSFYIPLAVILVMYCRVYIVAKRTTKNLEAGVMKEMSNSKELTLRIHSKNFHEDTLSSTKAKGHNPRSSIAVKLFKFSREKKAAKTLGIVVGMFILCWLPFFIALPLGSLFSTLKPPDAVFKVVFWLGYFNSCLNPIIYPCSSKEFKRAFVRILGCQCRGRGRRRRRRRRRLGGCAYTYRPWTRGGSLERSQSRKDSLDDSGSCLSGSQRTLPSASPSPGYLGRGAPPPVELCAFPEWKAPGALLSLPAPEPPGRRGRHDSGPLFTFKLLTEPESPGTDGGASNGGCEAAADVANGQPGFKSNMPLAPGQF
Briefly: Binding affinity to alpha1B adrenergic receptor (unknown origin).

Test [3] is filed under the species Homo sapiens. Briefly: Selectivity ratio of compound effect for alpha1B adrenergic receptor (unknown origin) to compound effect for alpha1A adrenergic receptor (unknown origin).
The species named for test [4] is Homo sapiens. Briefly: Selectivity ratio of compound effect for alpha1B adrenergic receptor (unknown origin) to compound effect for alpha1D adrenergic receptor (unknown origin).
The species named for test [5] is Homo sapiens. Nature of the test: Selectivity ratio of compound effect for alpha1D adrenergic receptor (unknown origin) to compound effect for alpha1A adrenergic receptor (unknown origin).

Regarding `COc1cc2nc(N3CCN(C(=O)C4COc5ccccc5O4)[C@H]4CCCC[C@H]43)nc(N)c2cc1OC` (single isomer, unassigned; (-)) [CYCLODOXAZOSIN], the Ki was 3.39 nM in test [1] and 1.41 nM in test [2]. The values for the Selectivity ratio in the test listed under Homo sapiens [3], in the test filed under Homo sapiens [4] and in the test filed under Homo sapiens [5] were 2, 3 and 1, respectively.
